From patent EP1902732A1, “PROPHYLACTIC/THERAPEUTIC AGENT FOR HER2-EXPRESSING CANCER” (Takeda Pharmaceutical Company Limited, priority 2005, dated 2006) come the findings set out here.

Assay [1] relates to HER2. In words: Western blotting of phosphorylated HER2 in BT-474 cells. It is filed as cell-based, human. How it is done:
(§1) Human HER2-expressing human breast cancer cell line BT-474 (purchased from American Tissue Culture Collection (ATCC)) was seeded into a 24-multiwell plate (BT-474: 1.2 x 10^5 cells/well), and cultured overnight in a carbon dioxide gas incubator (5% CO2, 37°C). A 4-fold dilution series of a mitochondrial respiratory chain complex inhibiting compound (complex I: rotenone, complex III: antimycin, complex V: oligomycin: Wako Pure Chemical Industries) was added starting from a final concentration of 1 µmol/L in 5 steps while continuing culture. After 2 hours, the broth was removed, and the cells were lysed with an SDS sample buffer (200 µL). Western blotting analysis was performed as follows. Specifically, this cell lysate (8 µL) was separated by an SDS-PAGE method (gel concentration: 7.5-15%) (Analytical Biochemistry, No. 166, pp. 368-379, 1987), and transferred to a nitrocellulose membrane (BioRad). Then, an antibody specific to phosphorylated HER2 (Cell signaling technology, Code# 2244), an anti-phosphorylated Akt antibody specific to downstream antiapoptotic signal transducing molecule Akt (Cell signaling technology, Code# 9271) and an anti-phosphorylated MAPK antibody specific to downstream proliferation signal transducing molecule MAPK (Cell signaling technology, Code# 9101) were used to detect the antibody with an ECL system (Amersham) to quantify the amount of phosphorylated protein by an image analysis.
(§2) Human HER2-expressing human cancer cell line BT-474 (purchased from ATCC) was seeded into a 24-multiwell plate (1.2 x 10^5 cells/well) and cultured overnight in a carbon dioxide gas incubator (20% O2, 5% CO2, 37°C). A 3-fold dilution series of metformin that activates AMPK (The Journal of Biological Chemistry, Vol. 279, No. 42, pp. 43940-43951, 2004) was added starting from a final concentration of 15 mmol/L in 5 steps while continuing culture. Two hours later, the broth was removed and the cells were lysed with an SDS sample buffer (200 µL). This cell lysate (8 µL) was separated by an SDS-PAGE method (gel concentration: 7.5-15%) (Analytical Biochemistry, No. 166, pp. 368-379, 1987). Then, western blotting analysis was performed in the same manner as in Example 1 to quantify phosphorylated HER2, phosphorylated Akt and phosphorylated MAPK.
Human HER2-expressing human breast cancer cell line BT-474 (purchased from American Tissue Culture Collection (ATCC)) was seeded into a 24-multiwell plate (BT-474: 1.2 x 10^5 cells/well), and cultured overnight in a carbon dioxide gas incubator (5% CO2, 37°C). Mitochondrial respiratory chain complex 1-inhibiting compound rotenone (Wako Pure Chemical Industries) was added in 5 steps at final concentrations of 1, 0.333, 0.111, 0.033 and 0.011 µmol/L while continuing culture. Two hours later, the broth was removed and the cells were lysed with an SDS sample buffer (200 µL). Then, this cell lysate was used to perform western blotting analysis. Specifically, this cell lysate (8 µL) was separated by an SDS-PAGE method (gel concentration: 7.5-15%) (Analytical Biochemistry, No. 166, pp. 368-379, 1987) and transferred to a nitrocellulose membrane (BioRad). Then, an antibody specific to phosphorylated HER2 (Cell signaling technology, Code# 2244), an AMPK antibody specific to AMPK (Cell signaling technology, Code# 2535) and an anti-phosphorylated AMPK antibody specific to phosphorylated AMPK (Cell signaling technology, Code# 2532) were used to detect the antibody by chemiluminescent detection with an ECL system (Amersham) to quantify an amount of phosphorylated protein with LAS-1000 plus image analysis device (FUJIFILM).
Human HER2-expressing human breast cancer cell line BT-474 (purchased from American Tissue Culture Collection (ATCC)) was seeded into a 24-multiwell plate (BT-474: 1.2 x 10^5 cells/well) and cultured overnight in a carbon dioxide gas incubator (5% CO2, 37°C). […]

Assay [2] relates to Akt. Briefly: Western blotting of phosphorylated Akt in BT-474 cells. It is filed as cell-based, human. How it is done:
as §1, §2
For orientation: A western blot detects proteins with antibodies after separation by electrophoresis.

The test system of assay [3] is MAPK. Briefly: Western blotting of phosphorylated MAPK in BT-474 cells. It is filed as cell-based, human. As for the experimental part:
as §1, §2

Assay [4] deals with BT-474 breast cancer cell. Briefly: Viable cell count using Cell Counting Kit-F. The following applies: five days of culture. It is filed as cell-based, human. How it is done:
(§3) BT-474 breast cancer cell, MDA-MB-453 breast cancer cell, A549 non-small cell lung cancer cell and LNCaP prostate cancer cell were used as human HER2-expressing cells while MDA-MB-231 breast cancer cell and A498 kidney cancer cell (all purchased from ATCC) were used as HER2-nonexpressing cells. Each of the cells used had been seeded into a 96-plate at 500cells/150 µL/well and cultured overnight. Each of the compounds, i.e., antimycin (final concentrations: 1, 0.1, 0.01 and 0.001 µmol/L), 2,4-dinitrophenol (final concentrations: 0.6, 0.2, 0.06 and 0.02 mmol/L), metformin (final concentrations: 25, 5, 1 and 0.2 mmol/L) and AICAR (final concentrations: 25, 5, 1 and 0.2 mmol/L) was diluted with a medium and added for 50 µL/well at a time to the final concentrations mentioned above. Following five days of culture at 37°C in 5% CO2, the cells were counted using Cell Counting Kit-F (Dojindo Laboratories).
(§4) Viable cell count using Cell Counting Kit-F was carried out by the following method according to the attached instruction. The supernatant was removed from the 96-well plate after five days of culture. Cell Counting Kit-F diluted 1000-fold with an RPMI medium (phenol red-free, serum-free) was added for 100 µL/well at a time. After 30 minutes of reaction at room temperature, fluorescence (excitation wavelength; 480 nm, fluorescent wavelength; 530 nm) was determined with a fluorescent plate reader.
(§5) From the determination results, percentage of the fluorescence level in the wells added with the compound was determined assuming that the fluorescence level in the wells without the addition of the compound (control) is 100%, and the remaining cellular quantity was determined in % with respect to that of the control.
(§6) BT-474 breast cancer cell, MDA-MB-453 breast cancer cell and LNCaP prostate cancer cell were used as human HER2-expressing cells while MDA-MB-231 breast cancer cell and A498 kidney cancer cell (all purchased from ATCC) were used as HER2-nonexpressing cells. Each of the cells used had been seeded into a 96-well plate at 500 cells/150 µL/well and cultured overnight. Troglitazone (final concentrations: 25, 6.25 and 1.56 µmol/L) was diluted with a medium, and added for 50 µL/well at a time to the final concentrations mentioned above. Following five days of culture at 37°C in 5% CO2, the cells were counted using Cell Counting Kit-F (Dojindo Laboratories).
(§7) From the determination results, percentage of the fluorescence level in the wells added with troglitazone was determined assuming that the fluorescence level in the wells without the addition of troglitazone (control) is 100%, and the remaining cellular quantity was determined in % with respect to that of the control.
In general terms: Tetrazolium assays rely on reduction of a dye to a coloured formazan, in cell work by metabolically active cells.

The test system of assay [5] is LNCaP prostate cancer cell. Briefly: Viable cell count using Cell Counting Kit-F. It is filed as cell-based, human. The following applies: five days of culture. How it is done:
as §3, §4, §5, §6, §7

In assay [6] the test system is MDA-MB-453 breast cancer cell. Briefly: Viable cell count using Cell Counting Kit-F. The following applies: five days of culture. In kind it is cell-based, human. How it is done: as §3, §4, §5, §6, §7
Assay [7] concerns A549 non-small cell lung cancer cell. In words: Viable cell count using Cell Counting Kit-F. It is filed as cell-based, human. The following applies: HER2-expressing cancer, five days of culture. As for the experimental part: as §3, §4, §5
Assay [8] has as its system DU145. Briefly: Viable cell count using Cell Counting Kit-F. In kind it is cell-based. The following applies: HER2-nonexpressing cancer, five days of culture.
The test system of assay [9] is A498 kidney cancer cell. Briefly: Viable cell count using Cell Counting Kit-F. In kind it is cell-based. The following applies: five days of culture. As for the experimental part: as §3, §4, §5, §6, §7
Assay [10] has as its system MDA-MB-231 breast cancer cell. Briefly: Viable cell count using Cell Counting Kit-F. It is filed as cell-based. The following applies: five days of culture. How it is done:
as §3, §4, §5, §6, §7

In assay [11] the test system is phosphorylated acetyl-CoA carboxylase (ACC). Briefly: Western blotting of phosphorylated ACC in BT-474 cells. The following applies: Example 7, two hours, antimycin 1-0.01 nmol/L, oligomycin 100-1 ng/mL, 2,4-dinitrophenol 300-3 µmol/L. In kind it is cell-based, human. As for the experimental part: (§8) Human HER2-expressing human breast cancer cell line BT-474 (purchased from American Tissue Culture Collection (ATCC)) was seeded into a 24-multiwell plate (BT-474: 1.2 x 10^5 cells/well) and cultured overnight in a carbon dioxide gas incubator (5% CO2, 37°C). As an energy metabolism inhibitor having a mechanism that differed from that of rotenone, mitochondrial respiratory chain complex III-inhibiting compound antimycin (Wako Pure Chemical Industries) was added to final concentrations of 1, 0.3, 0.1, 0.03 and 0.01 nmol/L while continuing culture. Using another plate, mitochondrial respiratory chain complex V-inhibiting compound oligomycin (Wako Pure Chemical Industries) was added to final concentrations of 100, 30, 10, 3 and 1 ng/mL while continuing culture. In addition, 2,4-dinitrophenol was added to 300, 100, 30, 10 and 3 µmol/L while continuing culture. Two hours after the addition of the agent, the broth was removed and the cells were lysed with an SDS sample buffer (200 µL). Then, this cell lysate was used to perform western blotting analysis. Specifically, this cell lysate (8 µL) was separated by an SDS-PAGE method (gel concentration: 7.5-15%) (Analytical Biochemistry, No. 166, pp. 368-379, 1987) and transferred onto a nitrocellulose membrane (BioRad). Then, an antibody specific to phosphorylated HER2 (Cell signaling technology, Code# 2244), pACC antibody specific to phosphorylated acetyl-CoA carboxylase (ACC) (Cell signaling technology, Code# 3661) and anti-phosphorylated S6K antibody specific to phosphorylated S6 kinase (S6K) (Cell signaling technology, Code# 9209) were used to detect the antibody by chemiluminescent detection with an ECL system (Amersham) to quantify an amount of phosphorylated protein with LAS-1000 plus image analysis device (FUJIFILM).

Assay [12] has as its system phosphorylated S6 kinase (S6K). Briefly: Western blotting of phosphorylated S6K in BT-474 cells. It is filed as cell-based, human. The following applies: Example 7, two hours, antimycin 1-0.01 nmol/L, oligomycin 100-1 ng/mL, 2,4-dinitrophenol 300-3 µmol/L. How it is done: as §8
[13] abbreviates: Example 5, 3-fold dilution series from 15 mmol/L in 5 steps, two hours.
The mark [14] stands for this setting: Example 2, 4-fold dilution series from 1 µmol/L in 5 steps, 2 hours.

In the case of `CN(C)C(=N)N=C(N)N` [metformin], in assay [1] (setting [13]), the HER2 phosphorylation entry is reported as “concentration-dependent suppression of HER2 phosphorylation”. Moreover, the Akt phosphorylation entry in [2] (setting [13]) is “suppressions of Akt and MAPK phosphorylations were also confirmed”. For the same compound, in assay [3] (setting [13]), the MAPK phosphorylation entry was “suppressions of Akt and MAPK phosphorylations were also confirmed”. Also, the “minimum concentrations for inhibiting cell proliferation for 50% or more” value is on record as 1 mmol/L in assay [4] (BT474, HER2-expressing cancer); 1 mmol/L in assay [5] (LNCaP, HER2-expressing cancer); 1 mmol/L in assay [6] (MB453, HER2-expressing cancer); 5 mmol/L in assay [7]; above 25 mmol/L in assay [8]; above 25 mmol/L in [9] (A498, HER2-nonexpressing cancer). The “minimum concentrations for inhibiting cell proliferation for 50% or more” value in assay [10] (MB231, HER2-nonexpressing cancer) is above 25 mmol/L.
Take `Cc1c(C)c2c(c(C)c1O)CCC(C)(COc1ccc(CC3SC(=O)NC3=O)cc1)O2` (stereo not drawn) [troglitazone]: the inhibition at 25 µM was 50% in assay [4] (Homo sapiens, BT-474, 120 h, BT474 cell, 25 µmol/L, read-out: proliferation inhibited to (remaining cellular quantity in % with respect to that of the control)); 48% in assay [5] (Homo sapiens, 120 h, LNCaP cell, 25 µmol/L, read-out: proliferation inhibited to (remaining cellular quantity in % with respect to that of the control)); 25% in assay [6] (Homo sapiens, MDA-MB-453, 120 h, MB453 cell, 25 µmol/L, read-out: proliferation inhibited to (remaining cellular quantity in % with respect to that of the control)); 105% in assay [9] (Homo sapiens, 120 h, A498 cell, HER2-nonexpressing, 25 µmol/L, read-out: proliferation inhibited to (remaining cellular quantity in % with respect to that of the control)); 100% in assay [10] (Homo sapiens, 120 h, MDA-MB-231 cell, HER2-nonexpressing, 25 µmol/L, read-out: proliferation inhibited to (remaining cellular quantity in % with respect to that of the control)).
As to `CC[C@H]1/C=C/C=C/C[C@@H](C)[C@H](O)[C@@](C)(O)C(=O)[C@@H](C)[C@H](O)[C@@H](C)C(=O)[C@@H](C)[C@H](O)[C@@H](C)/C=C/C(=O)O[C@@H]2[C@H](C)[C@H](CC1)O[C@]1(CC[C@H](C)[C@H](C[C@@H](C)O)O1)[C@H]2C` [oligomycin], the HER2 phosphorylation result in assay [1] (setting [14]) was “suppression of HER2 phosphorylation was confirmed”; in assay [1] (Example 7, two hours, antimycin 1-0.01 nmol/L, oligomycin 100-1 ng/mL, 2,4-dinitrophenol 300-3 µmol/L), “decreased dose-dependently”. For the same compound, the Akt phosphorylation result in assay [2] (setting [14]) is “suppressions of Akt and MAPK phosphorylations were also confirmed”. Further, the MAPK phosphorylation entry in assay [3] (setting [14]) was “suppressions of Akt and MAPK phosphorylations were also confirmed”. In addition, the “phosphorylation of ACC” value in assay [11] is reported as “increased dose-dependently”. Moreover, the “phosphorylation of S6K” value in [12] is reported as “suppressed”.
